# Measured values published in patent US5616615A, “Enaminone esters” (priority 1995, dated 1997).
# Entries after “also recorded” stand apart in the source; their conditions may differ. Like-named read-outs stand apart in the source and are kept apart here.
# Key:
# seizures = assay: Anticonvulsant evaluation (ASP phase I / overall); type: in vivo, mice; conditions: for anticonvulsant activity / phase I evaluations: mouse, in vivo; for minimal effective dose: Mus musculus, ip, Phase I, read-out: ASP Classification; for activity compared with 12: substituted benzylamines; for activity compared with benzylamine counterpart: 27 vs 16, 28 vs 17, 29 vs 20
# Description: The first phase of the ADD Program involved performing tests on male Carworth Farms #1 mice. […] Three tests were performed:
# (§1) Maximal electroshock seizures are elicited with a 60-cycle alternating current of 50 mA intensity (5-7 times that necessary to elicit minimal electroshock seizures) delivered via corneal electrodes for 0.2 seconds. A drop of 0.9% saline is instilled in the eye prior to application of the electrodes in order to […].
# The animal is observed for 30 minutes.
# [1] = system: Maximal electroshock seizures; assay: MES maximal electroshock seizure test, mice ip; type: in vivo; conditions: for responders at 100 mg/kg / responders at 300 mg/kg / responders at 30 mg/kg: Mus musculus, ip; for responders at 100 mg/kg: read-out: MES, animals protected/tested (converted); for responders at 300 mg/kg / responders at 30 mg/kg: read-out: MES, animals protected/tested
# Description: Three tests were performed:
# 1. MES--Electroshock Seizure Test
# as §1
# [2] = system: Subcutaneous Pentylenetetrazol seizure; assay: sc Met subcutaneous pentylenetetrazol (Metrazol) seizure test, mice; type: in vivo; conditions: for responders at 100 mg/kg / responders at 300 mg/kg / responders at 30 mg/kg: Mus musculus, sc; for responders at 100 mg/kg / responders at 300 mg/kg: read-out: scMet, animals protected/tested (converted); for scMet evaluation: Phase I; for responders at 30 mg/kg: read-out: scMet, animals protected/tested
# Description: 2. sc Met--Subcutaneous Pentylenetetrazol (Metrazol^R) Seizure Test
# The animal is observed for 30 minutes. Failure to observe even a threshold seizure (a single episode of clonic spasms of at least 5 seconds duration) is defined as protection and the results are expressed as the number of animals protected/the number of animals tested.
# [3] = system: Maximal electroshock seizures; assay: Phase VI oral MES test, rats; type: in vivo; conditions: oral; for responders at 50 mg/kg: Rattus norvegicus, read-out: MES, animals protected/tested (converted); for responders at 50 mg/kg / MES, animals protected/tested: 50 mg/kg
# Text: as §1
# (§2) This oral screen is designated as phase VI.
# in vivo = conditions: rat, po; for Tox, animals toxic/tested: 50 mg/kg
# Text: as §2
# [4] = 0.5 h, 300 mg/kg, 30 min, second trial
Structure (SMILES),anticonvulsant activity (seizures),"responders at 100 mg/kg ([1]; 0.5 h, 100 mg/kg, 30 min)","responders at 300 mg/kg ([1]; 0.5 h, 300 mg/kg, 30 min)","responders at 100 mg/kg ([1]; 4 h, 100 mg/kg, 4 h)","responders at 300 mg/kg ([1]; 4 h, 300 mg/kg, 4 h)",minimal effective dose (seizures),"responders at 100 mg/kg ([2]; 0.5 h, 100 mg/kg, 30 min)","responders at 300 mg/kg ([2]; 0.5 h, 300 mg/kg, 30 min)","responders at 100 mg/kg ([2]; 4 h, 100 mg/kg, 4 h)","responders at 300 mg/kg ([2]; 4 h, 300 mg/kg, 4 h)",other results
O=C1C=C(NCc2ccccc2)CC(c2ccccc2)C1C(=O)NCc1ccccc1 (stereo not drawn) [Compound 11],inactive,,,,,,,,,,
COC(=O)C1C(=O)C=C(NCCc2ccccc2)CC1(C)C (stereo not drawn) [Compound 14],,33.3%,100%,0%,0%,< 100 mg/kg,0%,0%,0%,0%,
COC(=O)C1C(=O)C=C(NCc2ccc(Cl)cc2)CC1C (stereo not drawn) [Compound 16],,,100%,,100%,> 100 mg/kg,,100%,,0%,"activity compared with 12 (seizures): only a slight modification in activity; responders at 300 mg/kg [2, 4]: 0%; scMet evaluation [2]: spurious results"
COC(=O)C1C(=O)C=C(NCc2ccc(C)cc2)CC1C (stereo not drawn) [Compound 17],inactive,,,,,,,,,,activity compared with 12 (seizures): only a slight modification in activity
COC(=O)C1C(=O)C=C(NCc2ccc(C(=O)O)cc2)CC1C (stereo not drawn) [Compound 18],inactive,,,,,,,,,,activity compared with 12 (seizures): only a slight modification in activity
CC1(C)CC(=O)C=C(NCc2ccccc2)C1 [Compound 19],potent anticonvulsants,33.3%,100%,0%,100%,< 100 mg/kg,0%,0%,0%,0%,
COC(=O)C1C(=O)C=C(NCc2ccc([N+](=O)[O-])cc2)CC1C (stereo not drawn) [Compound 20],,,,,,,,,,,activity compared with 12 (seizures): only a slight modification in activity
COC(=O)C1C(=O)C=C(NCc2ccc(F)cc2)CC1C (stereo not drawn) [Compound 21],,,0%,,100%,> 100 mg/kg,,0%,,0%,"activity in Phase II evaluation ([1]; substituted benzylamines): significant activity; ED50 ([3]; Phase VI, rat): 49.3 mg/kg; responders at 50 mg/kg ([3]; 0.5 h, 0.50 h): 50%; responders at 50 mg/kg ([3]; 0.25 h): 50%; responders at 50 mg/kg ([3]; 1.00 h): 25%; responders at 50 mg/kg ([3]; 2.00 h): 50%; responders at 50 mg/kg ([3]; 4.00 h): 75%; TD50 (in vivo): > 230 mg/kg; selectivity ratio (in vivo): 4.7; Tox, animals toxic/tested (in vivo): 0/4; activity compared with 12 (seizures): only a slight modification in activity"
COC(=O)C1C(=O)C=C(Nc2ccccc2)CC1C (stereo not drawn) [Compound 24],activity was lost; also recorded: inactive,,,,,,,,,,
COC(=O)C1C(=O)C=C(NNc2ccccc2)CC1C (stereo not drawn) [Compound 25],,,100%,,0%,> 100 mg/kg,,100%,,0%,"responders at 300 mg/kg [2, 4]: 0%; scMet evaluation [2]: spurious results"
CCc1ccc(NC2=CC(=O)C(C(=O)OC)C(C)C2)cc1 (stereo not drawn) [Compound 26],anticonvulsant activity was observed,66.7%,,0%,,< 100 mg/kg,0%,,0%,,
COC(=O)C1C(=O)C=C(Nc2ccc(C)cc2)CC1C (stereo not drawn) [Compound 28],anticonvulsant activity was observed,,100%,,0%,< 100 mg/kg,,0%,,0%,"responders at 30 mg/kg ([1]; 0.5 h, 30 min): 0%; responders at 30 mg/kg ([1]; 4 h, 4 h): 0%; activity compared with benzylamine counterpart (seizures): activity is enhanced in all cases; responders at 30 mg/kg ([2]; 0.5 h, 30 min, second trial): 0%; responders at 30 mg/kg ([2]; 0.5 h, 30 min): 100%; responders at 30 mg/kg ([2]; 4 h, 4 h): 0%; scMet evaluation [2]: spurious results"
COC(=O)C1C(=O)C=C(Nc2ccc([N+](=O)[O-])cc2)CC1C (stereo not drawn) [Compound 29],,0%,,0%,,< 100 mg/kg,100%,,0%,,"activity compared with benzylamine counterpart (seizures): activity is enhanced in all cases; responders at 100 mg/kg ([2]; 0.5 h, 100 mg/kg, 30 min, second trial): 0%"
COC(=O)C1C(=O)C=C(Nc2cc(C)ccc2OC)CC1C (stereo not drawn) [Compound 30],anticonvulsant activity was observed,,,,,,,,,,
"COC(=O)C1C(=O)C=C(Nc2cc(OC)ccc2OC)CC1C (stereo not drawn) [Compound 31, methyl 4-(2', 5'-dimethoxy)-phenylamino-6-methyl-2-oxo-cyclohex-3-en-1-oate]",anticonvulsant activity was observed,33.3%,100%,0%,0%,< 100 mg/kg,0%,0%,0%,0%,
COC(=O)C1C(=O)C=C(Nc2ccc(C(=O)O)cc2)CC1C (stereo not drawn) [Compound 32],comparable to inactive 18 in the benzylamine series,,,,,,,,,,
COC(=O)C1C(=O)C=C(NN2CCOCC2)CC1C (stereo not drawn) [Compound 33],,,,,,,,,,,phase I evaluations (seizures): neither was active
COC(=O)C1C(=O)C=C(NN2CCOCC2)CC1C (stereo not drawn) [Compound 34],,,,,,,,,,,phase I evaluations (seizures): neither was active
COC(=O)C1C(=O)C=C(Nc2ccc(O)cc2)CC1C (stereo not drawn) [Compound 35],inactive,,,,,,,,,,
COC(=O)C1C(=O)C=C(NCCc2ccccc2)CC1C (stereo not drawn) [Compound 109],,66.7%,100%,0%,0%,< 100 mg/kg,0%,0%,0%,0%,"responders at 50 mg/kg ([3]; 0.5 h, 0.50 h): 50%; responders at 50 mg/kg ([3]; 0.25 h): 100%; responders at 50 mg/kg ([3]; 1.00 h): 50%; responders at 50 mg/kg ([3]; 2.00 h): 25%; responders at 50 mg/kg ([3]; 4.00 h): 25%; Tox, animals toxic/tested (in vivo): 0/4"
COC(=O)C1C(=O)C=C(Nc2ccc(F)cc2)CC1C (stereo not drawn) [Compound 112],,66.7%,100%,0%,100%,< 100 mg/kg,0%,0%,0%,0%,"responders at 50 mg/kg ([3]; 0.5 h, 0.50 h): 100%; responders at 50 mg/kg ([3]; 0.25 h): 100%; responders at 50 mg/kg ([3]; 1.00 h): 100%; responders at 50 mg/kg ([3]; 2.00 h): 100%; responders at 50 mg/kg ([3]; 4.00 h): 100%; Tox, animals toxic/tested (in vivo): 0/4"
CC1(C)CC(=O)C=C(Nc2ccc(C(C)(C)C)cc2)C1 [Compound 143],,0%,0%,0%,0%,< 100 mg/kg,20%,20%,0%,0%,
O=C1C=C(NCc2ccccc2)CCC1 [Compound 153],,,,,,,,,,,"MES, animals protected/tested ([1]; 100 mg/kg, 30 min): 3/3; MES, animals protected/tested ([1]; 100 mg/kg, 4 h): 0/3; MES, animals protected/tested ([1]; 300 mg/kg, 30 min): 1/1; MES, animals protected/tested ([1]; 300 mg/kg, 4 h): 1/1; MES, animals protected/tested ([3]; 0.25 h): 0/4; MES, animals protected/tested ([3]; 0.50 h): 2/4; MES, animals protected/tested ([3]; 1.00 h): 3/4; MES, animals protected/tested ([3]; 2.00 h): 3/4; MES, animals protected/tested ([3]; 4.00 h): 1/4; scMet, animals protected/tested ([2]; 100 mg/kg, 30 min): 0/1; scMet, animals protected/tested ([2]; 100 mg/kg, 4 h): 0/1; scMet, animals protected/tested ([2]; 300 mg/kg, 30 min): 0/1; scMet, animals protected/tested ([2]; 300 mg/kg, 4 h): 0/1"
